Laboratory results as given in patent US20230293535A1, “ERBB/BTK INHIBITORS” (Dizal (Jiangsu) Pharmaceutical Co., Ltd., priority 2018, published 2023).
Counter-ions that a name gives are not always drawn. Like-named read-outs stand apart in the source and are kept apart here.

Legend:
[1] = molecular target: T1, human EGFR exon 20 V769_D770insASV (Homo sapiens, UniProt P00533, INS769ASV); test: EGFR Exon20 ASV insertion cellular phosphorylation inhibition (MSD pEGFR Y1068/total EGFR); format: cell-based; settings: Ba/F3 EGFR ASV ins cells, 4 h compound, p-EGFR(Y1068)/total EGFR;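 also: electrochemiluminescent readout on an MSD SECTOR Imager, IL3-independent transduced cells in medium with 1% FBS, compound concentration series at 37 °C and 5% CO2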
T1 construct: expressed in transfected cells; host or cells: Ba/F3 (DSMZ ACC-300), lentiviral transduction, puromycin selection, IL3 depletion

WT EGFR cell line A-431 = test: Cell proliferation, WT EGFR A431 (CellTiter-Glo, 72 h); format: cell-based; settings: Homo sapiens, A-431, 72 h;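 also: proliferation from a luminescent ATP viability signal, expressed as 100 × (treated minus time-zero plate) over (DMSO control minus time-zero plate), cells grown with 10% FBS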
[2] = molecular target: T2, human EGFR exon 20 H773_V774insNPH (Homo sapiens, UniProt P00533, INS773NPH); test: EGFR Exon20 NPH insertion cellular phosphorylation inhibition (MSD pEGFR Y1068/total EGFR); format: cell-based; settings: Ba/F3 EGFR NPH ins cells, 4 h compound, p-EGFR(Y1068)/total EGFR;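 also: IL3-independent Ba/F3 cells with constitutively phosphorylated EGFR, compound exposure at 37 °C under 5% CO2, electrochemiluminescent MSD measurement of the p-EGFR to total EGFR ratio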
T2 construct: host or cells: Ba/F3
Method: One day before the test, WT or mutant cells were seeded in 96 well plates at appropriate concentrations with corresponding growth media supplemented with 1% FBS, and incubated overnight. The next day, tested compounds at a series of concentrations were added into each individual well of the plates, and the plates were incubated for 4 h at 37° C. with 5% CO2.
The EGFR (Y1068) phosphorylation level (activity) of cells in each well were then measured with MSD kit named “MULTI-SPOT®96 4-Spot HB Prototype EGFR Triplex [sequence]: pEGFR(Tyr1068),pEGFR(Tyr1173), Total EGFR” according to the manufacturer’s instruction (MESO SCALE DISCOVERY, Cat# N45ZB-1). The assay is an electrochemiluminescent method for determining both phosphorylated and total EGFR of cells with an MSD SECTOR® Imager and the ratio of p-EGFR/total EGFR can be generated by the machine.

OCI-LY-10 cells = test: BTK (wt) cell proliferation, OCI-LY-10 (CellTiter-Glo, 72 h); format: cell-based; settings: Homo sapiens, OCI-Ly10, 72 h, OCI-LY-10 cells, 72 h, CellTiter-Glo; read-out: BTK WT OCI-LY-10 GI50;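 also: viable cells quantified via cellular ATP luminescence, proliferation given as percent of DMSO control after subtracting a duplicate plate read at time of dosing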
Method: OCI-LY-10 at 3,750 cells/well, TMD-8 and Ri-1 at 2,000 cells/well, and DB at 1,250 cells/well, respectively, were sorted into 384-well plates in RPMI1640 medium with 10% FBS. After overnight incubation, all cells were incubated with compound at a series of concentrations. Meanwhile, a duplicated plate of each cell line was prepared for measuring G0 value. The dosed plates were further incubated for 72 hours and the number of viable cells was measured by CellTiter-Glo® Luminescent Cell Viability Assay (Promega), a luminescent method for determining the number of viable cells through measurement of cellular ATP concentration using Envision plate reader (PerkinElmer). The percentage of proliferation was calculated as: % Proliferation = 100 × (G3 value of sample well - G0 value)/(G3 value of DMSO control - G0 value).

Ba/F3 EGFR ASV ins cells = test: Cell proliferation, Ba/F3 EGFR ASV ins (CellTiter-Glo, 72 h); format: cell-based; settings: Ba/F3 EGFR, 72 h;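 also: IL3-independent Ba/F3 cells transduced with EGFR V769_D770insASV, cellular ATP luminescence after compound exposure, growth relative to DMSO control with the day-0 baseline reading subtracted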
[3] = In vitro human hepatocytes clearance assay; settings: both, human, cryopreserved human hepatocytes (suspension), human hepatocytes Clint (µL/min/10^6cells), mixed gender human hepatocytes, incubation up to 100 min
Method: The protocol for rat/human hepatocytes metabolic stability assay is employed to determine the clearance of the compounds of the present disclosure in vitro.
Rat hepatocytes in male gender and human hepatocytes in mixed gender were obtained from commercial vendors (e.g., BioreclamationIVT) and stored at -150° C. prior to use. 10 mM stock solutions of tested compounds were prepared in DMSO. Thawing medium and supplement incubation medium (serum-free) were placed in a 37° C. water bath for at least 15 minutes prior to use. Stock solutions were diluted to 100 µM by combining 198 µL acetonitrile and 2 µL of 10 mM stock solution.
Vials of cryopreserved hepatocytes were removed from storage, ensured that vials remain at cryogenic temperatures. The vials were thawed in a 37° C. water bath with gently shaking. Vials were kept in water bath until all ice crystals had dissolved and were no longer visible. Vials were sprayed with 70% ethanol before being transferred to a biosafety cabinet. And then the contents were poured into the 50 mL thawing medium conical tube. Vials were centrifuged at 100 g for 10 minutes at room temperature.
Cell viability and density were counted using a Trypan Blue exclusion, and then cells were diluted with serum-free incubation medium to a working cell density of 1 × 10^6 viable cells/ml. […] The inactivated hepatocytes were used to prepare negative samples, which were used to exclude the misleading factor that resulted from instability of chemical itself.
Aliquots of 247.5 µL hepatocytes were dispensed into each well of a 96-well non-coated plate. The plate was placed in the incubator on an orbital shaker for approximately 10 minutes. Aliquots of 2.5 µL of the 100 µM test compounds were added into respective wells of the non-coated 96-well plate to start the reaction. This assay was performed in duplicate. The plate was incubated in the incubator on an orbital shaker for the designed time points. […] Samples were centrifuges for 20 minutes at 4000 g and aliquots of 100 µL of the supernatants were used for LC-MS/MS analysis for measurement of test compounds
In vitro hepatocyte clearance was estimated based on determination of elimination half-life (T½) of compounds disappearance from their initial concentrations. Peak area ratios of each compound (test or control) to IS was calculated. Ln (%Control) versus Incubation Time (min) curve was plotted, and the slope of a linear fitting line was calculated.

Ba/F3 EGFR NPH ins cells = test: Cell proliferation, Ba/F3 EGFR NPH ins (CellTiter-Glo, 72 h); format: cell-based; settings: Ba/F3 EGFR, 72 h;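 also: IL3-independent cells carrying constitutively phosphorylated EGFR, compound dilution series, viable cells quantified by ATP luminescence, growth relative to DMSO wells after subtracting pre-dosing (day 0) baseline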
[4] = test system: NCI-H1975 EGFR L858R/T790M cells; test: Cell proliferation, NCI-H1975 EGFR L858R/T790M (CellTiter-Glo, 72 h); format: cell-based; settings: Homo sapiens, NCI-H1975, 72 h;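 also: viable cells quantified by luciferase-based ATP luminescence, proliferation expressed relative to DMSO-treated wells (100%) after subtracting a parallel plate read at the time of dosing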
WT EGFR = molecular target: T3, WT EGFR (Homo sapiens, UniProt P00533); test: WT EGFR cellular phosphorylation inhibition in A-431 (hEGF stimulated, MSD); format: cell-based; settings: A431 cells, 4 h compound, then 100 ng/ml hEGF 10 min;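 also: electrochemiluminescence read-out of EGFR Tyr1068 phosphorylation expressed as ratio to total EGFR, cells kept in medium with 1% FBS, compounds tested as a concentration series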
T3 construct: host or cells: A-431

[5] = molecular target: T4, human Her2 exon 20 insertion mutation YVMA (Homo sapiens, UniProt P04626, INS775YVMA); test: Her2 Exon 20 YVMA insertion cellular phosphorylation inhibition (MSD p-Her2 Y1248/total Her2); format: cell-based; settings: Her2 YVMAins cells, 4 h compound;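 also: lentivirally transduced NIH-3T3 cells in 1% FBS medium, electrochemiluminescent MSD read-out, graded compound concentrations at 37 °C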
T4 construct: expressed in transfected cells; host or cells: NIH-3T3, lentiviral transduction, puromycin selection

DB cells = test: BTK (wt) cell proliferation, DB (CellTiter-Glo, 72 h); format: cell-based; settings: Homo sapiens, DB, DB cells, CellTiter-Glo, read-out: Non-BCR activated DB GI50;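 also: DB cells in 384-well plates given a dilution series of compound, viable cells read by ATP luminescence, growth expressed versus DMSO control after subtracting a time-zero plate reading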
[6] = test system: Her2 exon 20 insertion YVMA transduced NIH-3T3 cell line; test: Cell proliferation, Her2 YVMAins NIH-3T3 (CellTiter-Glo, 72 h); format: cell-based; settings: Mus musculus, NIH3T3, 72 h, Her2 YVMAins cells, 72 h proliferation; read-out: Her2 Exon 20 YVMA insertion GI50;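 also: viable cells quantified by ATP luminescence, growth over a day-zero baseline plate expressed as percent of DMSO control growth, compound dilution series in 10% FBS medium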
Ri-1 cells = test: BTK (wt) cell proliferation, Ri-1 (CellTiter-Glo, 72 h); format: cell-based; settings: Ri-1, 72 h, Ri-1 cells, 72 h, CellTiter-Glo; read-out: BTK WT Ri-1 GI50;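 also: viable cells quantified as cellular ATP luminescence, proliferation normalized to a time-zero plate and the DMSO control, compounds tested across a dilution series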
TMD-8 cells = test: BTK (wt) cell proliferation, TMD-8 (CellTiter-Glo, 72 h); format: cell-based; settings: Homo sapiens, TMD8, 72 h, TMD-8 cells, 72 h, CellTiter-Glo; read-out: BTK WT TMD-8 GI50;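 also: viable cells quantified by ATP-based luminescence, proliferation expressed as percent of DMSO control after subtracting a time-zero baseline plate read at dosing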
EGFR L858R&T790M = molecular target: T5, EGFR L858R&T790M (Homo sapiens, UniProt P00533, L858R/T790M); test: EGFR L858R and T790M cellular phosphorylation inhibition in NCI-H1975 (MSD); format: cell-based; settings: NCI-H1975 cells, 4 h compound, p-EGFR(Y1068)/total EGFR; read-out: EGFR L858R and T790M mutation IC50;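 also: phosphorylated and total EGFR detected by electrochemiluminescence, cells exposed to compound in medium containing 1% FBS at 37 °C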
T5 construct: host or cells: NCI-H1975

[7] = In vitro rat hepatocytes clearance assay; settings: male, rat, cryopreserved rat hepatocytes (suspension), rat hepatocytes Clint (µL/min/10^6cells), 1 µM-range incubation up to 100 min
[8] = A431, 72 h proliferation, read-out: EGFR WT A431 GI50
[9] = Ba/F3 EGFR ASV ins, 72 h proliferation, read-out: EGFR Exon20 ASV insertion GI50
[10] = Ba/F3 EGFR NPH ins, 72 h proliferation, read-out: EGFR Exon20 NPH insertion GI50
[11] = NCI-H1975, 72 h proliferation, read-out: EGFR L858R and T790M mutation GI50
[12] = read-out: EGFR WT A431 GI50 (nM)
[13] = read-out: EGFR Exon20 ASV insertion GI50 (nM)
[14] = read-out: EGFR Exon20 NPH insertion GI50 (nM)
[15] = read-out: EGFR L858R and T790M mutation GI50 (nM)

T2 sequence (P00533 with tags, fused parts or gaps INS773NPH): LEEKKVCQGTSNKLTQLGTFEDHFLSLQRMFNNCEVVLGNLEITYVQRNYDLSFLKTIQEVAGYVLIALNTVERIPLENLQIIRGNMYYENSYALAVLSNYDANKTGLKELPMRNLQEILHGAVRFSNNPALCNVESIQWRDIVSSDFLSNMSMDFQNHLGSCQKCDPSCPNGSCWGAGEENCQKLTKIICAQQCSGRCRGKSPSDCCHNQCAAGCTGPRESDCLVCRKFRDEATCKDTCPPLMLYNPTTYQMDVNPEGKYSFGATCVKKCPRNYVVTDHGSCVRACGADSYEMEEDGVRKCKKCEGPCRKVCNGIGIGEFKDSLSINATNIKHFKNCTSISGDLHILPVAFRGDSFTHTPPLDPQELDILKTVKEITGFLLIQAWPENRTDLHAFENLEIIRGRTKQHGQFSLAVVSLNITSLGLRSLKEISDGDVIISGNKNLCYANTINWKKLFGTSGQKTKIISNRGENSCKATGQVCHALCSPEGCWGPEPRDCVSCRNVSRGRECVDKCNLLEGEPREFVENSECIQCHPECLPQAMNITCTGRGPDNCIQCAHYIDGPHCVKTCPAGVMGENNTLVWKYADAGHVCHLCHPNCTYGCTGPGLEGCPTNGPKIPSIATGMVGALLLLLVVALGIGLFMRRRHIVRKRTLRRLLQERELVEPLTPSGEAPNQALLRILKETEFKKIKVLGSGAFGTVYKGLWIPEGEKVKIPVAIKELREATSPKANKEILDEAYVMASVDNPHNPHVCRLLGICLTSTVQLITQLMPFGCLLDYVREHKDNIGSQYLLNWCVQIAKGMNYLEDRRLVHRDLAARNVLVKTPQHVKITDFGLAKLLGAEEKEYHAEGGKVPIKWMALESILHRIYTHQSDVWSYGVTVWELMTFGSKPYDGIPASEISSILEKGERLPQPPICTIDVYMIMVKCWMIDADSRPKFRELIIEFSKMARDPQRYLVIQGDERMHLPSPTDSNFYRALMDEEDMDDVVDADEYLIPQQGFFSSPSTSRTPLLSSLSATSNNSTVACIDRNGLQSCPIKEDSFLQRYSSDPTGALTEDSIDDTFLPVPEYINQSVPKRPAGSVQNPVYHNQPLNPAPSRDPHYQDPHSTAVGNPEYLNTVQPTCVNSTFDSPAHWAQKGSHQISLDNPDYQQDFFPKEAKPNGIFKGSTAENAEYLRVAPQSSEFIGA
T4 sequence (P04626 with tags, fused parts or gaps INS775YVMA): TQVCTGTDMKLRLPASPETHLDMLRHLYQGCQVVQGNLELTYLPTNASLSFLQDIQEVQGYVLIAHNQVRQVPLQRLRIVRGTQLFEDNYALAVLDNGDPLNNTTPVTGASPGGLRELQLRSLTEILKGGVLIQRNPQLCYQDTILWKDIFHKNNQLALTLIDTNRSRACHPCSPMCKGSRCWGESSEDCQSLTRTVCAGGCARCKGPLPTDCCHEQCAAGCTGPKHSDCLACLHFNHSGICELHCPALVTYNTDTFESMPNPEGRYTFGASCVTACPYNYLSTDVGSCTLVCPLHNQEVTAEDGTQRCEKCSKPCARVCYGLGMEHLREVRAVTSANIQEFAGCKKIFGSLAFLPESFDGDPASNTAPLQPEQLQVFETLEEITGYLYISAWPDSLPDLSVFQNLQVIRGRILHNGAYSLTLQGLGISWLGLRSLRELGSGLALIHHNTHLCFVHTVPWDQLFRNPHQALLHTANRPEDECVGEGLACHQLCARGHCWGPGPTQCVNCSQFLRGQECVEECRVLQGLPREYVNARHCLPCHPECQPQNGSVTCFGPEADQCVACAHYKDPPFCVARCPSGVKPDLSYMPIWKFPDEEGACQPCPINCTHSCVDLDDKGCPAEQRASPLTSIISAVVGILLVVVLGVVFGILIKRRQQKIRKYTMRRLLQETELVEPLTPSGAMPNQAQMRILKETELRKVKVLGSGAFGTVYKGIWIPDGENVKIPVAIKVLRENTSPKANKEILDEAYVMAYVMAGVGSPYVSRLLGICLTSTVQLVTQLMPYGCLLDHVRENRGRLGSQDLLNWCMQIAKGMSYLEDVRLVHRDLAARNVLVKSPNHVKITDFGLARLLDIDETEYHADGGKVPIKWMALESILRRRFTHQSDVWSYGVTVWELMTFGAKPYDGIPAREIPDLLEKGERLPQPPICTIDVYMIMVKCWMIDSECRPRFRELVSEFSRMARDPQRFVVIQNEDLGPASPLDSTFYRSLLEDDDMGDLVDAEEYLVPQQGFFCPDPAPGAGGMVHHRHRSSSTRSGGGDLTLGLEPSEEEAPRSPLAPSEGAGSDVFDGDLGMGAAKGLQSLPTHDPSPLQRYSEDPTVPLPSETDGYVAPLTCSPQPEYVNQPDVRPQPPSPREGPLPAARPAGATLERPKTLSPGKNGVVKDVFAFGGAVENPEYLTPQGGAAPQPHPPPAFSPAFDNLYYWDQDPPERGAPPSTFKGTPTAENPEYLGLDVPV
T3 sequence (P00533 25-1210): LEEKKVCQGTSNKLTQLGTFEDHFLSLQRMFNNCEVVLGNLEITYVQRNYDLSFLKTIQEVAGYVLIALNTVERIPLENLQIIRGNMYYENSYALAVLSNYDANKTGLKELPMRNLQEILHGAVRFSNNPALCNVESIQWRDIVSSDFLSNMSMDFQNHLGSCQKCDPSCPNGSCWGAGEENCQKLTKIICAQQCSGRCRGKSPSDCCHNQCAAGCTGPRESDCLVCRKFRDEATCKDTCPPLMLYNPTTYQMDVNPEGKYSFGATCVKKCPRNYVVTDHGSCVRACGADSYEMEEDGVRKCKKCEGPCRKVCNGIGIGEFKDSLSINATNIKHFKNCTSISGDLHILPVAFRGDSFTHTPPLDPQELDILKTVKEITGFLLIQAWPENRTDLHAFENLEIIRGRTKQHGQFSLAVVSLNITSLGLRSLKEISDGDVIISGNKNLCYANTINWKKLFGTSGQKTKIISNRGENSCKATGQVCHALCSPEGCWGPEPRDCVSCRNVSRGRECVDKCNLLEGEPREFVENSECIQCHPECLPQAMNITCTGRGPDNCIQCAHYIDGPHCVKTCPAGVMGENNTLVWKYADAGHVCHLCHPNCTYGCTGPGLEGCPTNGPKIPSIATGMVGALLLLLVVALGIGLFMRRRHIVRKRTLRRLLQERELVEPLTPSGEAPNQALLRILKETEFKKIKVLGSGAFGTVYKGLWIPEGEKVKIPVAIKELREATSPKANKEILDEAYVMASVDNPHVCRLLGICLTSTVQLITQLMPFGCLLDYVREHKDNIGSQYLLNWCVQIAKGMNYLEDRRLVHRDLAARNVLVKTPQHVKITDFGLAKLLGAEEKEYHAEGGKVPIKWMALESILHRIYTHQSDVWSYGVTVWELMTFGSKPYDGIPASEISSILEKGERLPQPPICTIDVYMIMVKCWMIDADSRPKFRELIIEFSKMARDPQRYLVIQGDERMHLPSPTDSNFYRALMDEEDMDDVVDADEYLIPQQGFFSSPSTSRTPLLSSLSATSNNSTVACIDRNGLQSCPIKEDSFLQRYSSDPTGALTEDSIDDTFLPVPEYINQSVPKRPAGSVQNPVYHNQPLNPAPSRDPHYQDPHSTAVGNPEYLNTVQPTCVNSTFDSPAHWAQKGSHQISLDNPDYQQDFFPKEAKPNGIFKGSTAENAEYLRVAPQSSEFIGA
T5 sequence (P00533 25-1210 T790M/L858R): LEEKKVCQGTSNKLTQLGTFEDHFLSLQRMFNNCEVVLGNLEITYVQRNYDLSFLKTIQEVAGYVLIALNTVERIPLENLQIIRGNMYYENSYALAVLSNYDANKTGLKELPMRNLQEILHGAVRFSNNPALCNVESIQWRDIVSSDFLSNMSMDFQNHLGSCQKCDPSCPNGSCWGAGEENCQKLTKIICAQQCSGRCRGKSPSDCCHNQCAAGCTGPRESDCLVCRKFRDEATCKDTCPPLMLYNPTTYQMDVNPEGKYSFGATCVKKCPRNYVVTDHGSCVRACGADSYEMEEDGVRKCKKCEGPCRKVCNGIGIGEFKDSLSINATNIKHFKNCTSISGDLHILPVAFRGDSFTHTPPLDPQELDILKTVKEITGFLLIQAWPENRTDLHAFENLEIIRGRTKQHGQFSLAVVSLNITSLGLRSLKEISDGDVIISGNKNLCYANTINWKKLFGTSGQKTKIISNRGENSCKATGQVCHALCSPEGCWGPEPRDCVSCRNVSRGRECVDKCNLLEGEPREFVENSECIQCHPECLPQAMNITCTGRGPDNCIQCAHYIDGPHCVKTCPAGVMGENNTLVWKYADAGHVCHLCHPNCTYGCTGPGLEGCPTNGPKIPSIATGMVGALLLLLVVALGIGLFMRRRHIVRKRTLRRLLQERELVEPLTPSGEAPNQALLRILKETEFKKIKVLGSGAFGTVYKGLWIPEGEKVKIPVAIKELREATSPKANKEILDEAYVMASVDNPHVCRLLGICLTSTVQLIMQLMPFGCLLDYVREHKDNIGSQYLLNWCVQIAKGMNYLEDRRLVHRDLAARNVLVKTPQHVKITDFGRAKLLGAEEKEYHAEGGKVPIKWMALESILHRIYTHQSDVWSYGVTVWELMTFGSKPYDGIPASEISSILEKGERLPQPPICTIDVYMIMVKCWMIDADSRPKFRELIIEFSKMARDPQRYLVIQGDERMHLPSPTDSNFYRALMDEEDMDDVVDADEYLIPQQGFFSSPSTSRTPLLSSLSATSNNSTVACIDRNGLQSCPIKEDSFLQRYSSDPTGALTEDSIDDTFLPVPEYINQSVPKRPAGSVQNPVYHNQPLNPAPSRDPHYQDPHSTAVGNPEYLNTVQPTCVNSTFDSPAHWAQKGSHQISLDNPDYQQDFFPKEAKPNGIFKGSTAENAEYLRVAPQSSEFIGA

SMILES | IC50 [1] | GI50 (WT EGFR cell line A-431; [8]) | IC50 [2] | GI50 (OCI-LY-10 cells) | GI50 (Ba/F3 EGFR ASV ins cells; [9]) | hepatocyte CLint at 1 µM [3] | GI50 (Ba/F3 EGFR NPH ins cells; [10]) | GI50 [4, 11] | IC50 (WT EGFR) | IC50 [5] | GI50 (DB cells) | GI50 [6] | GI50 (Ri-1 cells) | GI50 (TMD-8 cells) | IC50 (EGFR L858R&T790M) | GI50 (WT EGFR cell line A-431; [12]) | GI50 (Ba/F3 EGFR ASV ins cells; [13]) | GI50 (Ba/F3 EGFR NPH ins cells; [14]) | GI50 [4, 15] | hepatocyte CLint at 1 µM [7]
C=CC(=O)Nc1cc(Nc2nccc(Nc3cc(Cl)c(F)cc3C(C)(C)O)n2)c(OC)cc1N1C[C@@H](C)C[C@@H]1CN(C)C [Compound 91, N-(5-(4-(5-chloro-4-fluoro-2-(2-hydroxypropan-2-yl)phenylamino)pyrimidin-2-ylamino)-2-((2R,4S)-2-((dimethylamino)methyl)-4-methylpyrrolidin-l-yl)-4-methoxyphenyl) acrylamide] | 41.2 nM | 31.5 nM | 26.2 nM | 86.8 nM | 69.6 nM | 8.57 µL/min/1e6 cells | 64.6 nM | 2.2 nM | 183 nM | 22.5 nM | > 3000 nM | 148 nM | 79.4 nM | 58 nM | 1.5 nM |  |  |  |  | 
C=CC(=O)Nc1cc(Nc2nccc(Nc3cc(Cl)c(F)cc3C(C)(C)O)n2)c(OC)cc1N1C[C@@H]2CN(C)[C@@H]2C1 [Compound 97, N-(5-(4-(5-chloro-4-fluoro-2-(2-hydroxypropan-2-yl)phenylamino)pyrimidin-2-ylamino)-4-methoxy-2-((1 S,5 S)-6-methyl-3,6-diazabicyclo[3.2.0]heptan-3-yl)phenyl)acrylamide formic acid salt] | 14.4 nM |  | 17.4 nM | 24 nM |  | 4.25 µL/min/1e6 cells |  |  | 160 nM | 2.8 nM | > 3000 nM | 93.9 nM | 54.7 nM | 18.6 nM | 0.7 nM | 38 nM | 86.7 nM | 74.2 nM | 3.4 nM | 
C=CC(=O)Nc1cc(Nc2nccc(Nc3cc(Cl)c(F)cc3C(C)(C)O)n2)c(OC)cc1N(C)CCN(C)C [Compound 36, (N-(5-(4-(5-chloro-4-fluoro-2-(2-hydroxypropan-2-yl)phenylamino)pyrimidin-2-ylamino)-2-((2-(dimethylamino)ethyl)(methyl)amino)-4-methoxyphenyl)acrylamide)] |  | 41.6 nM |  | 6.41 nM | 37.8 nM | 10.3 µL/min/1e6 cells | 42.7 nM | 1.6 nM |  | 5.3 nM | 881 nM | 75.2 nM | 8.2 nM | 8.32 nM |  |  |  |  |  | > 300 µL/min/1e6 cells
C=CC(=O)Nc1cc(Nc2nccc(Nc3cc(Cl)c(F)cc3C(C)(C)O)n2)c(OC)cc1N1CCC[C@@H]1CN1CCC1 [Compound 98, (R)-N-(2-(2-(azetidin-1-ylmethyl)pyrrolidin-1-yl)-5-(4-(5-chloro-4-fluoro-2-(2-hydroxypropan-2-yl)phenylamino)pyrimidin-2-ylamino)-4-methoxyphenyl) acrylamide formic acid salt] | 21.4 nM |  | 19.1 nM | 115 nM |  | 7.6 µL/min/1e6 cells |  |  | 190 nM | 3.1 nM | > 3000 nM | 135 nM | 108 nM | 71.5 nM | 0.9 nM | 87.8 nM | 129 nM | 112 nM | 3.1 nM | 
[2H]C([2H])([2H])N(CCN(C)c1cc(OC)c(Nc2ncnc(Nc3cc(F)c(F)cc3C(C)(C)O)n2)cc1NC(=O)C=C)C([2H])([2H])[2H] [Compound 22, N-(2-((2-(bis(methyl-d3)amino)ethyl)(methyl)amino)-5-((4-((4,5-difluoro-2-(2-hydroxypropan-2-yl)phenyl)amino)-1,3,5-triazin-2-yl)amino)-4-methoxyphenyl) acrylamide] | 8.7 nM | 12 nM | 11.2 nM |  | 26.5 nM | 9.78 µL/min/1e6 cells | 26.5 nM | 2.7 nM | 12.2 nM | 5.5 nM |  | 44.4 nM |  |  | 0.4 nM |  |  |  |  | 78.4 µL/min/1e6 cells
C=CC(=O)Nc1cc(Nc2nccc(Nc3cc(Cl)c(F)cc3C(C)(C)O)n2)c(OC)cc1N1C[C@H]2CN(C)[C@H]2C1 [Compound 89, N-(5-(4-(5-chloro-4-fluoro-2-(2-hydroxypropan-2-yl)phenylamino)pyrimidin-2-ylamino)-4-methoxy-2-((1R,5R)-6-methyl-3,6-diazabicyclo[3.2.0]heptan-3-yl)phenyl)acrylamide formic acid salt] | 23 nM |  | 14.8 nM | 11.4 nM |  | 3.84 µL/min/1e6 cells |  |  | 148 nM | 6.8 nM | > 3000 nM | 158 nM | 17.5 nM | 9.86 nM | 0.7 nM | 63.1 nM | 115 nM | 63.8 nM | 2.8 nM | 
C=CC(=O)Nc1cc(Nc2ncnc(Nc3cc(Cl)c(F)cc3C(C)(C)O)n2)c(OC)cc1N(C)CCN1CCCC1 [Compound 29, N-(5-(4-(5-chloro-4-fluoro-2-(2-hydroxypropan-2-yl)phenylamino)-1,3,5-triazin-2-ylamino)-4-methoxy-2-(methyl(2-(pyrrolidin-1-yl)ethyl)amino)phenyl)acrylamide] | 17.4 nM | 20.1 nM | 22.9 nM | 35.5 nM | 45.2 nM |  | 52.7 nM | 6.9 nM | 45.3 nM | 7.6 nM | > 3000 nM | 68.3 nM | 44.8 nM | 11.3 nM | 1 nM |  |  |  |  | 
C=CC(=O)Nc1cc(Nc2ncnc(Nc3cc(Cl)c(F)cc3C(C)(C)O)n2)c(OC)cc1N(C)C[C@@H]1CCCN1C [Compound 44, (S)-N-(5-(4-(5-chloro-4-fluoro-2-(2-hydroxypropan-2-yl)phenylamino)-1,3,5-triazin-2-ylamino)-4-methoxy-2-(methyl((1-methylpyrrolidin-2-yl)methyl)amino)phenyl) acrylamide] | 12.5 nM | 14.8 nM | 6.8 nM | 6.75 nM | 29.8 nM |  | 39 nM | 3.6 nM | 30.9 nM | 8 nM | > 3000 nM | 74.6 nM | 10.4 nM | 4.32 nM | 0.5 nM |  |  |  |  | 
